This passage reports IC50 and microsomal CLint results from US20110053969A1, “NOVEL DIAZASIPIROAKANES AND THEIR USE FOR TREATMENT OF CCR8 MEDIATED DISEASES” (ASTRAZENECA AB, priority 2005, published 2011).

The IC50 is the concentration needed to halve the response being measured. What is called microsomal CLint is the capacity of the preparation to metabolise the compound, expressed as a volume cleared per time.

Structures are written as SMILES. Where a name gives a salt, the structure may show the parent alone.

In series [1] the target is T1, human recombinant chemokine CCR8 receptor (Homo sapiens, UniProt P51685).
T1 construct: purchased Euroscreen ES-136-M; host or cells: CHO-K1 cells (transfected), membrane preparation
Briefly: CCL1 SPA binding assay. The note with it: inhibition of 125I CCL1 binding to membranes from CHO-K1 cells transfected with human CCR8. Here is the method: Membranes from CHO-K1 cells transfected with human recombinant chemokine CCR8 receptor (ES-136-M) were purchased from Euroscreen. Membrane preparations are stored at −70 C in 7.5 mM Tris-Cl pH 7.5, 12.5 mM MgCl2, 0.3 mM EDTA, 1 mM EGTA, 250 mM sucrose until used.
The CCR8 membranes (50.6 mg/ml) were preincubated with Wheat Germ Agglutinin SPA beads (4.05 mg/ml) in assay buffer (50 mM HEPES, 1 mM CaCl2x2H2O, 5 mM MgCl2x6H2O, 75 mM NaCl, 0.1% BSA) at pH=7.4 for 2 hours on ice. A 10-point dose-response curve (final concentrations 50 μM, 16.7 μM, 5.6 μM, 1.9 μM, 0.62 μM, 0.21 μM, 0.069 μM, 0.023 μM) was prepared by diluting compounds by serial dilution 1:3 in DMSO. In the screening plate (Polystyrene NBS plates, Costar Corning 3604) 1 μl from the DMSO solutions of compounds was transferred into each well. 1 μl of DMSO was added to the blank control wells and 1 μl unlabeled CCL1 (300 nM) was added to background control wells. 50 μl of the SPA bead-membrane mixture was added into each well. Finally, 50 μl. ([…]) ^125I CCL1 (2000 Ci/mM) was added to each well. Plates were then incubated at RT with shaking (700 rpm) for 90 minutes followed by 30 minutes at RT without shaking. The plate was read in a Wallac MicroBeta counter for 2 minutes/well.

Series [2] in a line: Human microsomal stability assay. The class given is in vitro ADME. The note with it: human microsomes (Xenotech), 1 mg microsomal protein/mL, 2.5 μM compound, 2 mM NADPH, pH 7.4, 37° C., read-out: Human Microsomal Stability (intrinsic Clearance, CLint). Here is the method:
Human Microsomal Stability Assay
The assay is run in a 96-deepwell format at 1 mg microsomal protein (Xenotech)/mL in potassium phosphate buffer (pH 7.4) with a compound concentration of 2.5 μM and a NADPH concentration of 2 mM. Samples at four time-points (0, 5, 15 and 30 minutes) are withdrawn and the enzymatic reaction is terminated by protein precipitation with 1% acetic acid in acetonitrile. The incubations are performed on a thermostated plate (37° C.) placed on a Tecan worktable, and all liquid handling was performed robotically. After centrifugation of the samples, the supernatants are pooled in sets of four before they are analysed by liquid chromatography with tandem mass spectrometry detection (LC/MS/MS) using multiple reaction monitoring (MRM). Data are presented as intrinsic Clearance (CLint), μl/min/mg protein, calculated from the initial linear part of the compound disappearance curve.

T1 sequence (P51685 whole entry): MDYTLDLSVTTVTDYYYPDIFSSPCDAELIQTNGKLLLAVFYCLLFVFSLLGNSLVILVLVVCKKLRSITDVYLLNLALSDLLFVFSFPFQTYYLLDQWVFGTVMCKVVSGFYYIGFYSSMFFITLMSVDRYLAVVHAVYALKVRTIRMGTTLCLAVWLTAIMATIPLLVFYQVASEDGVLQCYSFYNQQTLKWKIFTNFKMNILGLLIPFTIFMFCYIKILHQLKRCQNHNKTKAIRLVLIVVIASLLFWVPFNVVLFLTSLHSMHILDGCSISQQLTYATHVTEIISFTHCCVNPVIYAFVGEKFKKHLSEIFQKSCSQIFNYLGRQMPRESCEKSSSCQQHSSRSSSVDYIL

On to `CC(C)COc1ccccc1CN1CCC2(CC1)CCN(C(=O)c1ccc(=O)[nH]c1)CC2` [B, 5-{[9-(2-isobutoxybenzyl)-3,9-diazaspiro[5.5]undec-3-yl]carbonyl}pyridin-2(1H)-one, reference compound], for which the 50% inhibitory concentration (IC50) in series [1] stood at 1900 nM.

In the case of `COc1ccccc1Oc1ccccc1CN1CCC2(CC1)CCN(C(=O)c1ccc(=O)[nH]c1C(F)(F)F)CC2` [Example 3, 5-({9-[2-(2-methoxyphenoxy)benzyl]-3,9-diazaspiro[5.5]undec-3-yl}carbonyl)-6-(trifluoromethyl)pyridin-2(1H)-one trifluoroacetate], the concentration for half-maximal inhibition (IC50) in series [1] is 83 nM. In series [2], the microsomal CLint at 2.5 μM is less than 10 µL/min/mg.

With `COc1ccccc1Oc1cccc(CN2CCC3(CC2)CCN(C(=O)c2ccc[nH]c2=O)CC3)c1` [Example 4, 3-({9-[3-(2-methoxyphenoxy)benzyl]-3,9-diazaspiro[5.5]undec-3-yl}carbonyl)pyridin-2(1H)-one], in series [1], the IC50 was 15 nM. In addition, in series [2], the microsomal CLint at 2.5 μM worked out at 21.7 µL/min/mg.

With `CC(C)COc1ccccc1CN1CCC2(CC1)CCN(C(=O)c1ccc[nH]c1=O)CC2` [A, 3-{[9-(2-isobutoxybenzyl)-3,9-diazaspiro[5.5]undec-3-yl]carbonyl}pyridin-2(1H)-one, reference compound], the 50% inhibitory concentration (IC50) in series [1] came to 1950 nM.

`COc1ccccc1Oc1ccccc1CN1CCC2(CC1)CCN(C(=O)c1ccc[nH]c1=O)CC2` [Example 2, 3-({9-[2-(2-methoxyphenoxy)benzyl]-3,9-diazaspiro[5.5]undec-3-yl}carbonyl)pyridin-2(1H)-one]: in series [1], the IC50 amounted to 62 nM. Also, the intrinsic clearance (microsomal CLint) at 2.5 μM in series [2] was less than 10 µL/min/mg.
